Earlier results on one compound are cited in publication PMC5931096, “A Phase I study of the novel immunomodulatory agent PG545 (pixatimod) in subjects with advanced solid tumours” (British Journal of Cancer, 2018).

The data set deals with heparanase. The following applies: cited from earlier work.

For `CC(C)CCC[C@@H](C)[C@H]1CC[C@H]2[C@@H]3CC[C@H]4C[C@@H](O[C@@H]5O[C@H](COS(=O)(=O)O)[C@@H](O[C@H]6O[C@H](COS(=O)(=O)O)[C@@H](O[C@H]7O[C@H](COS(=O)(=O)O)[C@@H](O[C@H]8O[C@H](COS(=O)(=O)O)[C@@H](OS(=O)(=O)O)[C@H](OS(=O)(=O)O)[C@H]8OS(=O)(=O)O)[C@H](OS(=O)(=O)O)[C@H]7OS(=O)(=O)O)[C@H](OS(=O)(=O)O)[C@H]6OS(=O)(=O)O)[C@H](OS(=O)(=O)O)[C@H]5OS(=O)(=O)O)CC[C@]4(C)[C@H]3CC[C@]12C` [PG545], the Anti-heparanase activity result is “strong anti-heparanase activity”.
